The values that follow come from US8987474B2 (University of South Florida, priority 2006, dated 2015).

Sequence of Shp2 (Q06124 205-593): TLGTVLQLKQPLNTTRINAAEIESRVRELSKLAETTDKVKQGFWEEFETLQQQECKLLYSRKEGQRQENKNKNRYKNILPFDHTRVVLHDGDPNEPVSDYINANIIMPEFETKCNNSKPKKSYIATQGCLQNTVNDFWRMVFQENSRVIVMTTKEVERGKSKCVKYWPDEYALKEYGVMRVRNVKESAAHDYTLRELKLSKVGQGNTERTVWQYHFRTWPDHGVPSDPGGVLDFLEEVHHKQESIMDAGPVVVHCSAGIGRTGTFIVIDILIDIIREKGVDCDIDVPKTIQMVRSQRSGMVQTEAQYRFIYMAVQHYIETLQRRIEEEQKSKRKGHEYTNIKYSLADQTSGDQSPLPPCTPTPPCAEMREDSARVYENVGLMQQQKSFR

The first experiment concerns the target Shp2 (Homo sapiens (Human), UniProt Q06124). The experiment in a line: PTP activity assay (DiFMUP substrate) with GST-Shp2. The format is biochemical. The following applies: at 20 μM. From the text:
All constructs were verified by DNA sequencing.
Recombinant DEP1 was from Abcam.
For the compound `COC(=O)c1ccc2cc(C(=O)Nc3ccc(C(=O)O)cc3)ccc2c1` [RPM185], the “% PTP activity” value was 71 ± 3% (3) at 20 uM.

The same experiment, now with this note: concentration not given.
As to `COc1cccc(CNS(=O)(=O)c2ccc3c(c2)/C(=N/Nc2ccccc2[N+](=O)[O-])C(=O)N3)c1` [RPM137, 3-[(2-Nitrophenyl)hydrazono]-2-oxo-2,3-dihydro-1H-indole-5-sulfonic acid 3-methoxybenzylamide], the “% PTP activity” value was 31 ± 4% (12).

`COc1ccc(CNS(=O)(=O)c2ccc3c(c2)/C(=N/Nc2ccccc2[N+](=O)[O-])C(=O)N3)cc1` [RPM138, 3-[(2-Nitrophenyl)hydrazono]-2-oxo-2,3-dihydro-1H-indole-5-sulfonic acid 4-methoxybenzylamide]: the “% PTP activity” value is 36 ± 4% (6).

Take `O=C1Nc2ccc(S(=O)(=O)NCc3cccs3)cc2/C1=N/Nc1ccccc1[N+](=O)[O-]` [RPM140, 3-[(2-Nitrophenyl)hydrazono]-2-oxo-2,3-dihydro-1H-indole-5-sulfonic acid (thiophen-2-ylmethyl)amide]: the “% PTP activity” value is listed as 37 ± 4% (6).

Consider `O=C1Nc2ccc(S(=O)(=O)NCc3ccncc3)cc2/C1=N/Nc1ccccc1[N+](=O)[O-]` [RPM145, 3-[(2-Nitrophenyl)hydrazono]-2-oxo-2,3-dihydro-1H-indole-5-sulfonic acid (pyridin-4-ylmethyl)amide], for which the “% PTP activity” value was 37 + 11% (12).

As for `CN(C)CCNS(=O)(=O)c1ccc2c(c1)/C(=N/Nc1ccccc1[N+](=O)[O-])C(=O)N2` [RPM146, 3-[(2-Nitrophenyl)hydrazono]-2-oxo-2,3-dihydro-1H-indole-5-sulfonic acid (2-dimethylaminoethyl)amide], the “% PTP activity” value is 57 ± 6% (6).

Turning to `CN1C(=O)/C(=N\Nc2ccccc2[N+](=O)[O-])c2cc(S(=O)(=O)N(C)C)ccc21` [RPM154], the “% PTP activity” value was 73 ± 3% (6).

As for `CN(C)S(=O)(=O)c1ccc2c(c1)/C(=N/Nc1ccccc1[N+](=O)[O-])C(=O)N2Cc1ccccc1` [RPM156], the “% PTP activity” value was 34 ± 4% (12).

On to `O=C1Nc2ccc(S(=O)(=O)NCc3ccco3)cc2/C1=N/Nc1ccccc1[N+](=O)[O-]` [RPM168, 3-[(2-Nitrophenyl)hydrazono]-2-oxo-2,3-dihydro-1H-indole-5-sulfonic acid (furan-2-ylmethyl)amide], for which the “% PTP activity” value is listed as 42 + 4% (6).

On to `CCCNS(=O)(=O)c1ccc2c(c1)/C(=N/Nc1ccccc1[N+](=O)[O-])C(=O)N2` [RPM170, 3-[(2-Nitrophenyl)-hydrazono]-2-oxo-2,3-dihydro-1H-indole-5-sulfonic acid propylamide], for which the “% PTP activity” value is listed as 43 ± 8% (12).

In the case of `COCCNS(=O)(=O)c1ccc2c(c1)/C(=N/Nc1ccccc1[N+](=O)[O-])C(=O)N2` [RPM171, 3-[(2-Nitrophenyl)hydrazono]-2-oxo-2,3-dihydro-1H-indole-5-sulfonic acid (2-methoxyethyl)amide], the “% PTP activity” value is listed as 44 ± 8% (12).

Consider `O=C1Nc2ccc(S(=O)(=O)NCC3CCCO3)cc2/C1=N/Nc1ccccc1[N+](=O)[O-]` (stereo not shown) [RPM172, 3-[(2-Nitrophenyl)hydrazono]-2-oxo-2,3-dihydro-1H-indole-5-sulfonic acid (tetrahydrofuran-2-ylmethyl)amide], for which the “% PTP activity” value is on record as 35 ± 5% (12).

As to `CCC(C)NS(=O)(=O)c1ccc2c(c1)/C(=N/Nc1ccccc1[N+](=O)[O-])C(=O)N2` (stereo not shown) [RPM173, 3-[(2-Nitrophenyl)hydrazono]-2-oxo-2,3-dihydro-1H-indole-5-sulfonic acid sec-butylamide], the “% PTP activity” value is recorded as 33 ± 7% (12).

With `CCN1C(=O)/C(=N\Nc2ccccc2[N+](=O)[O-])c2cc(S(=O)(=O)N(C)C)ccc21` [RPM176, 1-Ethyl-3-[(2-nitro-phenyl)-hydrazono]-2-oxo-2,3-dihydro-1H-indole-5-sulfonic acid dimethylamide], the “% PTP activity” value is 50% ± 5% (6).

On to `O=C1Nc2ccc(S(=O)(=O)N3CCOCC3)cc2/C1=N/Nc1ccccc1[N+](=O)[O-]` [RPM177], for which the “% PTP activity” value is listed as 36 ± 8% (6).

For `O=C(O)c1ccc2cc(C(=O)Nc3ccccc3)ccc2c1` [RPM183], the “% PTP activity” value is 79 ± 16 (7) %.
